Where two headings read alike, the source gives them in different places.
How the values were obtained:
Staphylococcus aureus = experiment: Assessment of bactericidal activity (DMEM, 10% fetal bovine serum); assay type: cell-based; conditions: 3.2 × 10^6 CFU S. aureus, 1 h in DMEM with 10% fetal bovine serum; head prints 20 mM
Streptococcus pyogenes = Streptococcus pyogenes invasion assay in HUVEC, CFU recovery; assay type: cell-based; conditions: for inhibition at 10 µM: Streptococcus pyogenes, HUVEC
Description: FIG. 12 is a graph illustrating that ML 141 inhibition of cell invasion by S. pyogenes is reversible. HUVEC were pretreated with ML 141 (10 μM) or with dimethyl sulfoxide (DMSO) as the vehicle control (1 h). Following pretreatment, ML 141-containing media was removed from the washout samples and replaced with DMSO-containing media for 60 min prior to incubation with Streptococcus pyogenes at a multiplicity of infection of 30 (2 h). Extracellular bacteria were removed by gentamicin, an antimicrobial with limited mammalian membrane permeability. Intracellular bacteria were released from HUVEC into the medium by incubation in cold water (5 min). Serial dilutions were incubated (16 h) on Todd Hewitt broth/blood agar plates and colonies enumerated to determine colony forming units (CFU)/ml (*P<0.05 by one-way ANOVA followed by Student-Newman-Keuls post-hoc analysis; n=4/treatment).
Human umbilical vein endothelial cells (HUVEC, EMD Millipore, Billerica, Mass., SCCE001) were cultured in EndoGRO-LS complete media (EMD Millipore, SCME001) and maintained in 75 cm^2 vented cap flasks (Thermo-Fisher Scientific, Pittsburgh, Pa., 10-126-37) at 37° C./5% CO2. Streptococcus pyogenes (90-226, M1+) was cultured in Todd Hewitt broth (THB, Thermo-Fisher Scientific, DF0492-17-6) and grown at 37° C. with no shaking.
Two days prior to infection, S. pyogenes were cultured in 5 ml THB 18-24 h from a single colony grown on THB/blood (Cleveland Scientific, Bath, Ohio, SBCIT-100) agar (Moorhead & Company, Rocklin, Calif., gelidium), and 10 μl subcultured 18 h prior to infection. HUVEC were seeded in 24-well plates (Sigma-Aldrich, St. Louis, Mo., CLS3524) that had been coated with Attachment Factor (Life Technologies, Carlsbad, Calif., S006100) for 30 min at 37° C./5% CO2. HUVEC were plated at a density of 1.5×10^5 cells/well. For infection, S. pyogenes were harvested by centrifugation, 37° C./3 min/10,000 RPM, washed, and resuspended in fresh 0.85% saline (NaCl, Thermo-Fisher Scientific, S-271-500). Bacteria were diluted to 4.8×10^8 colony forming units (CFU)/ml and incubated at 37° C./5% CO2 with HUVEC at multiplicity of infection and for duration indicated in each figure or table. CFU of 90-226 S. pyogenes had been determined from a growth curve, fitting an OD600 of 0.5 to 4.8×10^8 CFU/ml. After infection, each well was washed three times with sterile 1× phosphate buffered saline (PBS, Life Technologies, 20012043) to remove unattached S. pyogenes. HUVEC were then incubated at 37° C., 5% CO2 for 45 min in 10% fetal bovine serum (FBS, Atlanta Biologicals, Flowery Branch, Ga., S111S0)/PBS containing 500 μg/ml gentamicin (Sigma-Aldrich, G1272). Following the incubation with gentamicin to remove extracellular bacteria, HUVEC were washed three times with PBS. Sterile distilled ice-cold water (Life Technologies, 15230-162) was added to each well for 5 min at room temperature (RT) to permeabilize the host cells. Serial dilutions of this bacteria-containing water were performed in saline, plated on THB/blood agar, and incubated for 18-20 h at 37° C. The following day, colonies were counted to determine CFU/ml recovered from invasion.

[1] = In vivo toxicity, single intraperitoneal injection; conditions: dissolved in polyethylene glycol, C57BL/6 mice
Description: Specific pharmacologic inhibition of CDC42 has been examined to determine whether it is sufficient in the inhibition of host cell invasion by S. aureus. Host cell cytotoxicity was undetectable below 30 μM in vitro. The highest concentration of ML 141 introduced in vivo without detectable toxicity was 100 mg/kg body weight [BW]. The compound was dissolved in polyethylene glycol and administered as a single intraperitoneal injection to C57BL/6 mice.

SMILES: COc1ccc(C2CC(c3ccccc3)=NN2c2ccc(S(N)(=O)=O)cc2)cc1 (stereo not drawn) [ML 141, 4-[3-(4-methoxyphenyl)-5-phenyl-3,4-dihydropyrazol-2-yl]benzenesulfonamide]
- CFU/mL (×10^9 ± SEM), Compound (Staphylococcus aureus): 0.9 ± 0.09 ×10^9 CFU/mL
- reversibility of inhibition of S. pyogenes invasion (Streptococcus pyogenes; ML 141 10 μM 1 h, washout 60 min, MOI 30, 2 h): reversible
- % Inhibition (± SEM) (Streptococcus pyogenes; ML 141 10 μM added 1 hour post-infection, 2 h, MOI 0.25): No difference
- % Inhibition (± SEM) (Streptococcus pyogenes; ML 141 10 μM added at time of infection, 2 h, MOI 30): No difference
- inhibition at 10 µM (Streptococcus pyogenes; 2 h, read-out: % Inhibition (± SEM), ML 141 10 μM added at time of infection, 2 h, MOI 0.25 (first line)): 81 ± 7%
- inhibition at 10 µM (Streptococcus pyogenes; 2 h, read-out: % Inhibition (± SEM), ML 141 10 μM added at time of infection, 2 h, MOI 0.25 (second line)): 62 ± 10%
- inhibition at 10 µM (Streptococcus pyogenes; read-out: % Inhibition (± SEM), ML 141 10 μM added 18-20 hours pre-infection, duration of infection 2 h, MOI 30): 96 ± 4%
- inhibition at 10 µM (Streptococcus pyogenes; read-out: % Inhibition (± SEM), ML 141 10 μM added 1 hour post-infection, 2 h, MOI 0.0025): 92 ± 6%
- highest concentration introduced in vivo without detectable toxicity [1]: 100 mg/kg body weight

— patent US10183032B2, “Methods for treating bacterial infection” (Ball State Innovation Corporation, priority 2012, dated 2019)
